Data published in the supplement of paper PMC12317010.
Counter-ions that a name gives are not always drawn.

Test: collision cross section in nitrogen (drift tube, single-field); higher = larger gas-phase ion size
[1] = ion type: [M+H], ion source: APCI, ion mode: Positive
[2] = ion type: [M+H], ion source: ESI, ion mode: Positive
[3] = ion type: [M+Na], ion source: ESI, ion mode: Positive
[4] = ion type: [M-H], ion source: ESI, ion mode: Negative
[5] = ion type: [M+], ion source: APCI, ion mode: Positive
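Further: chemical standards at 10 µM analysed by drift tube IMS-QTOF MS in about 3.95 torr nitrogen, mean of duplicate injections differing ≤1%, mass error below 10 ppm.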

Row | collision cross section in nitrogen [1] [Å²] | collision cross section in nitrogen [2] [Å²] | collision cross section in nitrogen [3] [Å²] | collision cross section in nitrogen [4] [Å²] | Compound | further results
1 | 139.3 | 140.3 |  |  | COc1c2ccoc2cc2oc(=O)ccc12 [5-Methoxypsoralen] | 
2 |  |  |  | 122.5 | Oc1cccc(I)c1 [3-Iodophenol] | 
3 |  |  |  | 127.5 | CCc1cccc(O)c1 [3-Ethylphenol] | 
4 |  |  | 150.1 |  | CCCCOCCOCCOC(C)=O [Diethylene glycol monobutyl ether acetate] | 
5 |  |  |  | 180.6 | O=S(=O)(O)c1cc(O)c2ccc(Nc3ccccc3)cc2c1 [4-Hydroxy-7-(phenylamino)naphthalene-2-sulfonic acid] | 
6 | 142.9 | 143.3 |  |  | CCCOC(=O)NCCCN(C)C [Propamocarb] | 
7 |  |  | 201.9 |  | CCCCCC[C@@H](O)C/C=C\CCCCCCCC(=O)OCC(O)CO (stereo partly specified) [Glyceryl monoricinoleate] | 
8 | 222.7 | 222.9 | 227.5 | 233.2 | N=C(NCCCCCCNC(=N)NC(=N)Nc1ccc(Cl)cc1)NC(=N)Nc1ccc(Cl)cc1 [Chlorhexidine dihydrochloride] | 
9 |  |  | 169.5 |  | C=C(C)C(=O)OCCOP(=O)(O)OCCOC(=O)C(=C)C [Bis(methacryloyloxyethyl) hydrogen phosphate] | 
10 | 139.1 | 139.6 |  |  | COc1cc(OC)c2ccc(=O)oc2c1 [5,7-Dimethoxy-2H-chromen-2-one] | 
11 | 147.9 | 148.3 | 150.3 |  | NCCCOCCOCCOCCCN [3,3'-[Oxybis(ethane-2,1-diyloxy)]dipropan-1-amine] | 
12 | 217.4 | 217.1 | 224.1 | 228.5 | Cc1oc(-c2ccccc2)nc1CCOc1ccc(C[C@H](Nc2ccccc2C(=O)c2ccccc2)C(=O)O)cc1 [Farglitazar] | 
13 |  | 243 | 255.4 |  | CCN(CC)c1ccc(C(=C2C=CC(=[N+](CC)CC)C=C2)c2ccc(S(=O)(=O)O)cc2S(=O)(=O)[O-])cc1 [C.I. Acid Blue 1, sodium salt] | 
14 | 277.7 | 276.9 | 280.7 | 282.3 | CC[C@H]1OC(=O)[C@H](C)[C@@H](O[C@H]2C[C@@](C)(OC)[C@@H](O)[C@H](C)O2)[C@H](C)[C@@H](O[C@@H]2O[C@H](C)C[C@H](N(C)C)[C@H]2O)[C@](C)(O)C[C@@H](C)C(=NOCOCCOC)[C@H](C)[C@@H](O)[C@]1(C)O [Roxithromycin] | collision cross section in nitrogen [5]: 276.3 Å²
15 |  |  |  | 127.8 | Nc1ccc(O)c(C(=O)O)c1 [5-Aminosalicylic acid] | 
16 |  |  | 143.1 |  | Cn1c([N+](=O)[O-])cnc1COC(N)=O [Ronidazole] | 
17 |  |  |  | 119.5 | c1ccc2[nH]ccc2c1 [Indole] | 

Row | collision cross section in nitrogen [1] [Å²] | collision cross section in nitrogen [2] [Å²] | collision cross section in nitrogen [3] [Å²] | collision cross section in nitrogen [4] [Å²] | Compound | further results
18 | 200 | 200.3 | 195.6 | 195 | O=C(O)COCCN1CCN(C(c2ccccc2)c2ccc(Cl)cc2)CC1 (stereo unspecified) [Cetirizine hydrochloride (1:2)] | 
19 | 177.2 | 177.1 | 187.1 | 179.8 | CCN(CC)c1ccc(C(=O)c2ccccc2C(=O)O)c(O)c1 [2-[4-(Diethylamino)-2-hydroxybenzoyl]benzoic acid] | 
20 | 197.7 | 197.2 | 195.7 |  | OCCOCCN1CCN(C(c2ccccc2)c2ccc(Cl)cc2)CC1 (stereo unspecified) [Hydroxyzine hydrochloride] | 
21 |  |  |  | 133.2 | O=C(O)[C@H](O)[C@@H](O)[C@H](O)[C@H](O)CO [D-Gluconic acid] | 
22 | 125.7 |  |  |  | NC(=O)c1cccnc1 [Niacinamide] | 
23 | 162.8 | 162.8 |  |  | CCCCCCc1ccc(N)cc1 [4-Hexylaniline] | 
24 |  |  | 167.5 |  | CCOC(=O)C1CC(=O)C(=C(O)C2CC2)C(=O)C1 (stereo unspecified) [Trinexapac-ethyl] | 
25 |  |  | 219.4 |  | CC(C)CCCCCCOC(=O)CCCCC(=O)OCCCCCCC(C)C [Diisononyl adipate] | 
26 | 144.8 |  |  | 145.5 | O=C(Nc1ccccc1)c1ccccc1O [Salicylanilide] | 
27 |  |  | 238.1 |  | CC(=O)OC[C@H]1O[C@@](COC(C)=O)(O[C@H]2O[C@H](COC(C)=O)[C@@H](OC(C)=O)[C@H](OC(C)=O)[C@H]2OC(C)=O)[C@@H](OC(C)=O)[C@@H]1OC(C)=O [Sucrose octaacetate] | 
28 |  |  |  | 160.6 | O=C1NC(=O)C(c2ccccc2)(c2ccccc2)N1 [Diphenylhydantoin sodium] | 
29 | 158.6 |  | 172.4 | 155.5 | Cn1cnc([N+](=O)[O-])c1Sc1ncnc2nc[nH]c12 [Azathioprine] | 
30 |  | 133 |  | 133.7 | Cc1cc(=O)oc2cc(O)ccc12 [4-Methylumbelliferone hydrate] | 
31 | 137.3 | 137.2 |  |  | COc1ccc(NC(C)=O)cc1N [3'-Amino-4'-methoxyacetanilide] | 
32 | 163.3 |  |  |  | Cc1ccc(N2C(=O)C=CC2=O)cc1N1C(=O)C=CC1=O [Toluene-2,4-dimaleimide] | 
33 |  |  |  | 131.2 | O=C(O)c1cccc([N+](=O)[O-])c1 [Sodium 3-nitrobenzoate] | 
34 |  |  |  | 144.6 | O=C(O)CCCCCCCCC(=O)O [Decanedioic acid] | 

The remaining lines, values behind:

Row | Compound | collision cross section in nitrogen [1] [Å²] | collision cross section in nitrogen [2] [Å²] | collision cross section in nitrogen [3] [Å²] | collision cross section in nitrogen [4] [Å²] | further results
35 | CCCCCCCCCCCCCCN(CCO)CCO [2,2'-(Tetradecylimino)diethanol] | 193 | 193.2 | 187.4 |  | 
36 | CN(C)C(=O)NC1(c2ccccc2)CCN(CCC[C@]2(c3ccc(Cl)c(Cl)c3)CCCN(C(=O)c3ccccc3)C2)CC1 | 252.9 | 252.5 | 256.5 | 246.6 | 
37 | CCCCOCCOC(=O)COc1nc(Cl)c(Cl)cc1Cl [Triclopyr 2-butoxyethyl ester] |  |  | 176.3 |  | 
38 | CC(C)(C)c1cc([N+](=O)[O-])cc([N+](=O)[O-])c1O [Dinoterb] |  |  |  | 150.1 | 
39 | C=CCOCC(CC)(CO)COCC=C [2,2-Bis[(prop-2-en-1-yloxy)methyl]butan-1-ol] |  |  | 150 |  | 
40 | COC(=O)C(C)N(C(=O)c1ccco1)c1c(C)cccc1C (stereo unspecified) [Furalaxyl] | 162.1 | 161.4 | 178 |  | 
41 | Nc1ccc(Sc2ccc(N)cc2)cc1 [4,4'-Thiodianiline] | 164.9 | 164.4 |  |  | collision cross section in nitrogen [5]: 148.1 Å²
42 | CN(C)C(=O)NC1(c2ccccc2)CCN(CC[C@@]2(c3ccc(F)c(F)c3)CN(C(=O)c3ccccc3)CCO2)CC1 | 241.2 | 241.6 | 243 |  | 
43 | Cc1nnc(-c2ccccc2)c(=O)n1N [Metamitron] | 144.9 | 145.2 |  |  | 
44 | CCOc1ccc2[nH]cc(C(=O)NCc3ccccc3)c(=O)c2n1 | 184.3 | 183.9 | 187 | 183.9 | 
45 | CCCCCCCCCCCCCCCCCC[N+](C)(C)Cc1ccccc1 [Benzalkonium chloride C18 (BAC C18)] |  |  |  |  | collision cross section in nitrogen (ion source: APCI, ion mode: Positive, ion type: [M]+ (permanent cation)): 215.1 Å²; collision cross section in nitrogen (ion source: ESI, ion mode: Positive, ion type: [M]+ (permanent cation)): 216.6 Å²
46 | C=CC(=O)NC(C)(C)CS(=O)(=O)O [2-Acrylamido-2-methyl-1-propanesulfonic acid] |  |  |  | 141.5 | 
47 | CCOP(=S)(OCC)Oc1cc(C)nc(C(C)C)n1 [Diazinon] | 173.5 | 173.7 |  |  | 
48 | C[Si](Cn1cncn1)(c1ccc(F)cc1)c1ccc(F)cc1 [Flusilazole] | 176.6 | 174.9 |  |  | 
49 | O=c1nn[nH]c2ccccc12 [1,2,3-Benzotriazin-4(1H)-one] |  |  |  | 126.4 | 
50 | CCCCCCCCCc1ccc(OCCOCCO)cc1 [Igepal CO-210] |  |  | 191.3 |  | 
51 | CC(=NNC(=O)Nc1cc(F)cc(F)c1)c1ncccc1C(=O)O [Diflufenzopyr] |  |  | 181.6 |  | 
52 | Cc1ccccc1NC(=N)NC(=N)N [1-(o-Tolyl)biguanide] | 144.7 | 144.7 | 148.5 |  | 
53 | FC(F)(F)c1ccc(Cl)cc1 [1-Chloro-4-(trifluoromethyl)benzene] |  | 142.6 |  |  | 
54 | N#C[C@@H]1CC(F)(F)CN1C(=O)CNC1CC2CCC(C1)N2c1ncccn1 (stereo partly specified) | 176.9 | 176.9 | 182.7 |  | 
55 | O=[N+]([O-])c1cc([As](=O)(O)O)ccc1O [4-Hydroxy-3-nitrophenylarsonic acid] |  | 145 |  | 141.8 | 
56 | CCCCC(O)(Cn1cncn1)c1ccc(Cl)cc1Cl (stereo unspecified) [Hexaconazole] | 174.6 | 173.5 | 187 |  | 
57 | O=C(NCO)NCO [1,3-Dimethylolurea] |  |  | 151.7 |  | 
58 | c1cc(N(CC2CO2)CC2CO2)ccc1OCC1CO1 (stereo unspecified) [4-(Diglycidylamino)phenyl glycidyl ether] | 167.5 | 167 | 161.7 |  | 
59 | CCOc1ccc(C(C)(C)COCc2cccc(Oc3ccccc3)c2)cc1 [Etofenprox] |  |  | 191 |  | 
